Results reported in US5719130A, “Anthracycline derivative having a trifluoromethylated sugar” (Zaidan Hojin Biseibutsu Kagaku Kenkyu Kai, priority 1994, dated 1998).
In brackets after ≈: the same amount, converted by molar mass.

Tests used:
Leukemia L-1210 cells [1] = assay: Antitumor activity against leukemia L-1210 in CDF1 mice, 30-day observation (Test Example 2); type: in vivo, mouse; details: 9 days, 30 d observation, '>' = at least one of four mice survived 30 days
Description: Since an elapsed time of 24 hours from the transplantation of the leukemia cells, Compound (c) of this invention was administered intraperitoneally to the mice under test for 9 consecutive days once per day. […] While, mice of the control group (the untreated group) were administered with only physiological saline after the transplantation of the L-1210 cells. During the observation period, the numbers of the surviving mice in the treated group and the control group were counted, and the mean survival days of mice in the treated group and in the control group were then calculated. From the mean survival day (C) of the untreated mice of the control group and the mean survival day (T) of the treated mice of the treated group, there were evaluated percentages (%) of the increase in the life-span of the treated mice as T/C %. For a comparison purpose, adriamycin was also tested in the same manner as above.

[2] = test system: adriamycin-resistant P388 cells (P388/ADR); assay: In vitro inhibition of growth of adriamycin-resistant P388 cells, 72 hours (Test Example 3); type: cell-based, mouse; details: Mus musculus; P388/ADR, 72 hours
Description: (§1) Furthermore, in order to estimate the antitumor activities of Compound (a) and Compound (b) of this invention represented by the general formula (I), as well as the adriamycinone derivative represented by the formula (II) (namely, Compound (c) of this invention), some "in vitro" tests for inhibiting proliferation of cancer cells were conducted as shown below.
(§2) The above-mentioned Compound (a), Compound (b) or Compound (c) according to this invention were added at varying concentrations to mouse leukemia, P388 cells or adriamycin-resistant P388 cells (P388/ADR) which had been incubated in test tubes containing an appropriate culture medium. The incubation of the tumor cells were then continued for 72 hours from the addition of the test compound, and determination was made to evaluate such concentrations of the test compound which could inhibit the growth of the leukemia cells by 50% (namely, IC50' ng/ml). FT-DM, FT-ADM and adriamycin (as the hydrochloride) were used as comparative compounds and were tested in the same manner as above.

Leukemia L-1210 cells [3] = assay: Antitumor activity against leukemia L-1210 in CDF1 mice, 60-day observation (Test Example 1); type: in vivo, mouse; details: for % Increase in life-span (T/C, %): 9 days, 60 d observation, '>' = at least one of four mice survived 60 days
Description: Thus, to evaluate the antitumor effects of the new compounds of this invention against experimental tumors in animals, CDF1 mice (four mice per group) were intraperitoneally transplanted with cells of Leukemia L-1210 at an amount of 1×10^5 cells/mouse. Since an elapsed time of 24 hours from the transplantation of the leukemia cells, a test compound according to this invention was administered intraperitoneally to the mice under test for 9 consecutive days once per day. […] While, mice of the control group (the untreated group) were administered with only physiological saline after the transplantation of the L-1210 cells. During the observation period, the numbers of the surviving mice in the treated group and in the control group were counted, and the mean survival days of mice in the treated group and in the control group were then calculated. From the mean survival day (C) of the untreated mice of the control group and the mean survival day (T) of the treated mice of the treated group, there were evaluated percentages (%) of the increase in the life-span of the treated mice, as T/C %. For a comparison purpose, 7-O-(2,6-dideoxy-2-fluoro-α-L-talopyranosyl)daunomycinone (abbreviation: FT-DM); 7-O-(2,6-dideoxy-2-fluoro-α-L-talopyranosyl)adriamycinone (abbreviation: FT-ADM); daunomycin and adriamycin were also tested in the same manner as above. Incidentally, the mean survival day of mice of the control group (the untreated group) was amounting to 8 to 9 days, and the mean survival day of mice of the comparative groups having received the administration of adriamycin was varying dependently on the dosage of adriamycin.

P388 cells = assay: In vitro inhibition of growth of P388 cells, 72 hours (Test Example 3); type: cell-based, mouse; details: Mus musculus, P388, 72 h
Description: as §1, §2

[4] = clinical treatments, patients; cited from earlier work

## COc1cccc2c1C(=O)c1c(O)c3c(c(O)c1C2=O)C[C@@](O)(C(=O)CO)C[C@@H]3O[C@H]1C[C@H](N)[C@H](O)[C@H](C)O1 [Adriamycin, adriamycin]
Leukemia L-1210 cells [1]; 0.15 mg/kg/day i.p.
  % Increase in life-span (T/C, %): 140%
Leukemia L-1210 cells [1]; 0.3 mg/kg/day i.p.
  % Increase in life-span (T/C, %): 132%
Leukemia L-1210 cells [1]; 0.6 mg/kg/day i.p.
  % Increase in life-span (T/C, %): 208%
Leukemia L-1210 cells [1]; 1.25 mg/kg/day i.p.
  % Increase in life-span (T/C, %): 330%
Leukemia L-1210 cells [1]; 2.5 mg/kg/day i.p.
  % Increase in life-span (T/C, %): 273%
Leukemia L-1210 cells [1]; 5 mg/kg/day i.p.
  % Increase in life-span (T/C, %): 177%
[2]
  IC50: 0.51 µg/mL (≈ 0.938 µM)
Leukemia L-1210 cells [3]; 0.15 mg/kg/day i.p.
  % Increase in life-span (T/C, %): 140%
Leukemia L-1210 cells [3]; 0.3 mg/kg/day i.p.
  % Increase in life-span (T/C, %): 132%
Leukemia L-1210 cells [3]; 0.6 mg/kg/day i.p.
  % Increase in life-span (T/C, %): 208%
Leukemia L-1210 cells [3]; 1.25 mg/kg/day i.p.
  % Increase in life-span (T/C, %): 330%
Leukemia L-1210 cells [3]; 2.5 mg/kg/day i.p.
  % Increase in life-span (T/C, %): 273%
Leukemia L-1210 cells [3]; 2.5 mg/kg/day to 5 mg/kg/day, about / approximately at maximum
  percentages (%) of increase in life-span (T/C, %): approximately 330%
Leukemia L-1210 cells [3]; 5 mg/kg/day i.p.
  % Increase in life-span (T/C, %): 177%
Leukemia L-1210 cells [3]; 2.5 to 5 mg/kg/day for daunomycin, adriamycin, 0.3 to 1.25 mg/kg/day for Compound (b), low dosages for formula (I)
  development of toxicity (in words): accompanied by development of toxicity
P388 cells
  IC50: 0.017 µg/mL (≈ 0.0313 µM)
[4]
  serious side-effects (in words): serious side-effects such as leukocytopenia, alopecia, myocardiopathy and others
